Assays:
male Swiss mice = assay: Hot plate test in mice; type: in vivo; details: hot plate 55° C., Cizolirtine (as Citrate salt) 20 mg/kg i.p., Morphine 5 mg/kg s.c., combination 20 + 5 mg/kg; for % Analgesic activity 0.5 hours: 0.5 hours after administration; for % Analgesic activity 1 hour: 1 hour after administration; for % Analgesic activity 2 hours: 2 hours after administration
Description: The analgesic activity of the inventive active substance combination is determined in male Swiss mice (weight 20-25 g, Harlan Iberica, S. Feliu de Codinas, Barcelona, Spain) as described in the publication of G. Woolfe and A. D. MacDonald, J. Pharm. Exp. Ther. 1944, 80, pages 300-307. The respective description of this publication is incorporated by reference and forms part of the present disclosure.
According to this test the mice are put onto a plate, which is heated to 55° C. and the time is determined until the mice show signs of pain such as vigorous and repeated licking of the paws, jumping or pulling back the paws. The mice are kept on the hot plate for no longer than 40 seconds in order to avoid the development of cutaneous lesions. At first the untreated mice are subjected to the hot-plate test to determine a baseline for their pain induced behaviour. After 10 minutes the vehicle, the active substances and the inventive active substance combination to be tested are administered to different groups of mice. 0.5 hours, 1 hour and 2 hours after the administration the animals are put onto the hot plate and the time is measured until they show signs of pain. The analgesic efficacy of the active substances or active substance combination is calculated on the basis of the values obtained for the comparison group of mice which is only administered the vehicle.

male Swiss albino mice = tested on: male Swiss albino mice
Description: Pharmacodyn. 1971, 190, pages 213-218 in male Swiss albino mice (weight 20-25 g, Harlan Iberica, S. Feliu de Codinas, Barcelona, Spain).
Opioid dependency is developed in the mice by intraperitoneal administration of the opioid in a suitable dose known to those skilled in the art, e.g. 5 mg/kg/day for 4 consecutive days for morphine. Withdrawal symptoms are then induced by the intravenous administration of a suitable opioid antagonist in a dose known to those skilled in the art, for example, 2 mg/kg naloxone in case of morphine, 30 minutes after the administration of the final dose of the opioid is completed.
In the 30 minute period following the naloxone administration the mice show typical withdrawal symptoms, namely jumps and shakes (of the wet dog shake type), which are counted and registered.
The active substance combination is also administered to the mice for 4 consecutive days. After the administration of 2 mg/kg naloxone 30 minutes after the administration of the final dose of the active substance combination has been completed, the mice are closely watched for withdrawal symptoms, namely jumps and shakes (of the wet dog shake type), which are then counted and registered.
The influence of the active substance combination on withdrawal symptoms has been determined as described above.

[1] = 30 minute period after 2 mg/kg naloxone, Morphine 5 mg/kg/day s.c. over 4 days, alone or with Cizolirtine citrate 40 mg/kg/day i.p.

Structure (SMILES): CN(C)CCOC(c1ccccc1)c1ccnn1C.O=C(O)CC(O)(CC(=O)O)C(=O)O (racemic) [Cizolirtine, (±)-5-[α-[2-(Dimethylamino)ethoxy]benzyl]-1-methyl-1H-pyrazole citrate]
- % Analgesic activity 0.5 hours (male Swiss mice): 25.8%
- % Analgesic activity 1 hour (male Swiss mice): 17.1%
- % Analgesic activity 2 hours (male Swiss mice): 23.4%
- withdrawal symptoms associated with morphine on co-administration (in words) (male Swiss albino mice; table B, co-administered with morphine, opioid amount not reduced): significantly reduced

Structure (SMILES): CN1CC[C@]23c4c5ccc(O)c4O[C@H]2[C@@H](O)C=C[C@H]3[C@H]1C5 [Morphine]
- % Analgesic activity 0.5 hours (male Swiss mice): 48.6%
- % Analgesic activity 1 hour (male Swiss mice): 34.8%
- % Analgesic activity 2 hours (male Swiss mice): 15.8%
- Number of jumps (male Swiss albino mice; [1]): 6.6
- Number of shakes (male Swiss albino mice; [1]): 16.3

From US20070082893A1, “Active substance combination” (LABORATORIOS DEL DR. ESTEVE S.A, priority 2004, published 2007)
